According to ChEMBL document CHEMBL1201862, “PubChem BioAssay data set” (2004):
Where “and” joins values, the source holds several entries; their conditions need not be identical. Equal entries are not always repeated. Calls of active or inactive are those of the source. Cut-off read from the data, not from the text of the source, for most assays here: actives have a measured IC50 and inactives only a lower limit.

Columns and labels:
[1] = molecular target: T1, Histone-lysine N-methyltransferase NSD2 (Homo sapiens, UniProt O96028); assay type: biochemical
T1 sequence (O96028 whole entry): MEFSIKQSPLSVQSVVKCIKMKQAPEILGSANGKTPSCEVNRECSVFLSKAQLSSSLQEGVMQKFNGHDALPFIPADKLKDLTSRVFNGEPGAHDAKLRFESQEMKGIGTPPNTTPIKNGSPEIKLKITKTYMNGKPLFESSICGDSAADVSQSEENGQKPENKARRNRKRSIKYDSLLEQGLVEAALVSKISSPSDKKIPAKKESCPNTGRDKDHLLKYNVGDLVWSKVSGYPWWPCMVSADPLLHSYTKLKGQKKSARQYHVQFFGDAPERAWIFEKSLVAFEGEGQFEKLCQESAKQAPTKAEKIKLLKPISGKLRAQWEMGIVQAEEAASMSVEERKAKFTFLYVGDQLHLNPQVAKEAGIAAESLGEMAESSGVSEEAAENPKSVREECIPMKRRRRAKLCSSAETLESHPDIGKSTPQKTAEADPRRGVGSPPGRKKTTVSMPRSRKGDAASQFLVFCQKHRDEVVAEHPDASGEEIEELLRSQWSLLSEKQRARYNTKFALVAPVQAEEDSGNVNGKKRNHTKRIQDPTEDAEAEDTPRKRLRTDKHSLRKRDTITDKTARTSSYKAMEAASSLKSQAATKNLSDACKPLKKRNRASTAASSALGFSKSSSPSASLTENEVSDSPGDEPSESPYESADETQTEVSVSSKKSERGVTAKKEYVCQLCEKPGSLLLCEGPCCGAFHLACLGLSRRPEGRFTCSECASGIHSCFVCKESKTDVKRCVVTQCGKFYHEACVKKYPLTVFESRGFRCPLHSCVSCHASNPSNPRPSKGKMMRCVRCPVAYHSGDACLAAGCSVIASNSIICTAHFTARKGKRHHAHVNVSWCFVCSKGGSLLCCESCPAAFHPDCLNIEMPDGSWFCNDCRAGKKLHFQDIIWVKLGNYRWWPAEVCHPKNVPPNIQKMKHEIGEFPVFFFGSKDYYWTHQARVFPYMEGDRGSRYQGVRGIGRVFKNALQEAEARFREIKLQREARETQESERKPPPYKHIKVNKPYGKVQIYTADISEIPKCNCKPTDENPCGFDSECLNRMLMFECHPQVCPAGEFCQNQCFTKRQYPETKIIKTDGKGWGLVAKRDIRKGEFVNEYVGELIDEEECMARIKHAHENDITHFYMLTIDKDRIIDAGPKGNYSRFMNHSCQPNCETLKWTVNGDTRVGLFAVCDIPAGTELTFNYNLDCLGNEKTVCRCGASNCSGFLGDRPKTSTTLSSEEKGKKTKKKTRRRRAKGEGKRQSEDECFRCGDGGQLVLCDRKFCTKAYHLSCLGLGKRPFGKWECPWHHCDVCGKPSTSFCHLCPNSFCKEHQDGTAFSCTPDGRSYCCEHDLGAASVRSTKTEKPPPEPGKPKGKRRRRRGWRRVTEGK

[2] = molecular target: T2, Apoptotic protease-activating factor 1 (Homo sapiens, UniProt O14727); assay type: functional
T2 sequence (O14727 whole entry): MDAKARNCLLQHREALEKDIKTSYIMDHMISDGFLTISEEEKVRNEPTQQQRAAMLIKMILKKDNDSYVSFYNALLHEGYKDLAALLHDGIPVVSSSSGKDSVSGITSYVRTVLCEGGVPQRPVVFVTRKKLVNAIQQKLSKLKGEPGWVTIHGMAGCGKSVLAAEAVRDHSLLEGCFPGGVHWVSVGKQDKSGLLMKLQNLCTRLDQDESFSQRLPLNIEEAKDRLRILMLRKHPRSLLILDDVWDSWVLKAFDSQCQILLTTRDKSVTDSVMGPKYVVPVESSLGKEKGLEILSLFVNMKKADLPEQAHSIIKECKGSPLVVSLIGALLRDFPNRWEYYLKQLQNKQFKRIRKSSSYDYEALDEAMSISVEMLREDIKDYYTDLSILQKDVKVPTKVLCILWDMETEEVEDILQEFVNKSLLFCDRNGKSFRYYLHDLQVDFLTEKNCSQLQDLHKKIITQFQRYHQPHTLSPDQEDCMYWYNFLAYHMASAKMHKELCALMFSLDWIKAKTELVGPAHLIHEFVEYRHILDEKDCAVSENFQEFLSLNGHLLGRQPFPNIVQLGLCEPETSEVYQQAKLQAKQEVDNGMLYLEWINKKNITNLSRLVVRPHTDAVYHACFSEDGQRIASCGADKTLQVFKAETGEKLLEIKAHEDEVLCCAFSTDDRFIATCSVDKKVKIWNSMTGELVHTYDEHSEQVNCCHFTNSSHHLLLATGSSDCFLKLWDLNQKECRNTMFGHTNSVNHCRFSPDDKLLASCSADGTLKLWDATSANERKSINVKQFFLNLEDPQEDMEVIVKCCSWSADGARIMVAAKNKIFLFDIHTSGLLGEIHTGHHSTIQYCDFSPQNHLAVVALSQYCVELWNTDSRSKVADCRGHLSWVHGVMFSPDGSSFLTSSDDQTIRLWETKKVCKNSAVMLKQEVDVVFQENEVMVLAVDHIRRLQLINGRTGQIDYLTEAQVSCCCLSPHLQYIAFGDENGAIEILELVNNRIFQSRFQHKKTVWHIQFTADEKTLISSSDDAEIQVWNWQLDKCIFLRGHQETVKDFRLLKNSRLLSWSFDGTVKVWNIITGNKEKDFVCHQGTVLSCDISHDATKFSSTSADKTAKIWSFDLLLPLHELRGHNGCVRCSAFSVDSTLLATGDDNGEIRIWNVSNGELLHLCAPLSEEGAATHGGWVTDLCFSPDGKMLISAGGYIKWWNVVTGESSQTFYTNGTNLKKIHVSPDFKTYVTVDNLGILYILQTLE

Caspase-3 = molecular target: T3, Caspase-3 (Homo sapiens, UniProt P42574); assay type: functional;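 note: Dose-response selectivity test against caspase-3 for candidate inhibitors of sentrin-specific proteases (SENPs)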
T3 sequence (P42574 whole entry): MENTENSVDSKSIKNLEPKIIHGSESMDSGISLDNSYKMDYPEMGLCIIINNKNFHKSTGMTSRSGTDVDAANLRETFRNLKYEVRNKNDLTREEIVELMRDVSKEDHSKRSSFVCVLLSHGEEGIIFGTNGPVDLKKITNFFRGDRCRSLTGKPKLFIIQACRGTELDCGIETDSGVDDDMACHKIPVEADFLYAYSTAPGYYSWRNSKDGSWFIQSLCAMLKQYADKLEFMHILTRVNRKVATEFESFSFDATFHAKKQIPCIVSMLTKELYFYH

CCN1/C(=C/c2ccc3cc(C)ccc3[n+]2CC)Sc2cc(C)c(C)cc21
AC50 [1]: 19.5 µM (active) and 8.3 µM (active)
IC50 [2]: 23.9 µM (active)

COc1ccc(C(=O)Nc2nc3c(s2)Cc2cc(OC)ccc2-3)cc1
IC50 (Caspase-3): 3.45 µM (active)
IC50 [2]: 51.1 µM (active)

Cc1oc2c(c1C(=O)c1ccccc1)C(=O)C(=O)c1ccccc1-2
IC50 (Caspase-3): 29.3 µM (active)
AC50 [1]: 14.3 µM (active)

O=C1CCCC2=C1C1(O)C(=O)c3ccccc3C1(O)O2 (configuration not stated)
IC50 [2]: 13.1 µM (active)

O=C1C(Cl)=C(NCCN2CCCCC2)C(=O)c2ccccc21
AC50 [1]: 6.54 µM (active)
IC50 [2]: 5.4 µM (active)

COc1cc(NCCCNC(C)C)c2nccc(C)c2c1
AC50 [1]: 9.71 µM (active)

CC(/C=C1\SC(=S)N(NS(=O)(=O)c2ccccc2)C1=O)=C\c1ccccc1
IC50 (Caspase-3): 7.87 µM (active)
AC50 [1]: 13 µM (active)
